Assays:
ERα_LBD(GST) = ERα_LBD(GST) (Homo sapiens (Human), UniProt P03372); assay: LanthaScreen TR-FRET ERα competitive binding assay; conditions: read-out: ERα HTRF IC50
Procedure: • 1. ERα_LBD(GST) protein: 4 nM • 2. Tb Anti-GST: 2 nM • 3. Fluormone ES2 Green tracer: 3 nM • 4. Incubation time: 60 min • 5. DMSO: 1% • 6. Assay buffer: Adding 1M DTT to Nuclear receptor Buffer K for final 5 mM DTT. • 7. ZPE: 1% DMSO • 8. HPE: 1 μM ARV_471 • 9. LanthaScreen® TR-FRET ERα Competitive Binding Assay (ThermoFisher, #A15887)
• 1) Cherry pick 2 μL 10 mM compound stock to column 1 of a 384 intermediate plate • 2) Add 18 μL DMSO to column 1 to dilute compound to 1 mM. • 3) Transfer 10 μL 1 mM compound to column 1 of a LDV plate. • 2) Add 6 μl DMSO to column 2-10 of the LDV plate. • 3) Compounds undergo 3-fold serial dilution (3 μL+6 μL) in DMSO. • 4) Transfer 120 nL compound solution to assay plate. • ZPE: 120 nL 100% DMSO
Prepare complete nuclear receptor buffer K by adding 1 M DTT to nuclear receptor buffer K for a final concentration of 5 mM DTT. Complete nuclear receptor buffer K must be prepared fresh daily. Prepare 2× protein solution using complete nuclear receptor buffer K containing 8 nM ERα_LBD(GST) and 4 nM Tb Anti-GST. Then, prepare 2× Fluormone ES2 Green tracer (6 nM) using complete nuclear receptor buffer K. Add 6 μL 2× Fluormone ES2 green tracer into a compound plate (PerkinElmer 6008289) by dragonfly with one-tips-addition. Subsequently, add 6 μL 2× protein solution into the plate. Briefly and gently mix the 384-well plate on a plate shaker and incubate at room temperature protected from light for 60 min. The plate is sealed with a cover to minimize evaporation. Read the plate at wavelengths of 520 nm and 495 nm. Calculate the TR-FRET ratio by dividing the emission signal at 520 nm by the emission signal at 495 nm. Generate a binding curve by plotting the emission ratio vs. the log [ligand]. To determine the IC50 value, fit the data using XL-fit for a sigmoidal dose-response.

ER [1] = molecular target: T1, ER (Homo sapiens (Human), UniProt P03372); assay: In-cell western (ICW) ER degradation assay in MCF-7 cells; type: cell-based; conditions: MCF7, 16 hrs; for Dmax: MCF7, maximal ER degradation; for DC50: ER degradation; for MCF7 Dmax %: maximal ER degradation
ER [2] = molecular target: T1, ER; assay: In-cell western (ICW) ER degradation assay in T47D cells; type: cell-based; conditions: 16 hrs; for DC50: ER degradation; for Dmax / T47D Dmax %: maximal ER degradation
CRBN/DDB1 = CRBN/DDB1 (Homo sapiens (Human), UniProt Q96SW2); assay: HTRF binding assay to CRBN/DDB1; conditions: read-out: CRBN HTRF IC50
Procedure: The binding potency was determined using HTRF assay technology (Perkin Elmer). Compounds were serially diluted in DMSO and 0.2 μL volume was transferred to white 384-well plate.

T1 sequence (P03372 whole entry): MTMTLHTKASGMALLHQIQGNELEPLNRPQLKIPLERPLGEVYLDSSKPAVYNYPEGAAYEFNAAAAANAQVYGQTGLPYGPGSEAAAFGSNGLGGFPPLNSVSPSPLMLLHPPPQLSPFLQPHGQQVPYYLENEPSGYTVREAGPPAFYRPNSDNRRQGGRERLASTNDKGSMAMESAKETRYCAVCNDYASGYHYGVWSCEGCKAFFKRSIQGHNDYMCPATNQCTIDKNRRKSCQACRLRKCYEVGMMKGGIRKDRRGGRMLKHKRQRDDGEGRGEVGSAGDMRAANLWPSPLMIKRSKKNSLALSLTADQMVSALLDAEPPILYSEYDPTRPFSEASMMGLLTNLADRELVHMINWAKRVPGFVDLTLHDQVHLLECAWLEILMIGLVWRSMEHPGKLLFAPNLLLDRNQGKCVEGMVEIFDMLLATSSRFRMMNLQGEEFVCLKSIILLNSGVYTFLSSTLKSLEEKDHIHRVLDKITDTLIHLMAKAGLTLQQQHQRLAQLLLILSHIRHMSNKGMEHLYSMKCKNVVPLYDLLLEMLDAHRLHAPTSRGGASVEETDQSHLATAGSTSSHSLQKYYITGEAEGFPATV
Chain of ERα_LBD(GST) (P03372 311-547): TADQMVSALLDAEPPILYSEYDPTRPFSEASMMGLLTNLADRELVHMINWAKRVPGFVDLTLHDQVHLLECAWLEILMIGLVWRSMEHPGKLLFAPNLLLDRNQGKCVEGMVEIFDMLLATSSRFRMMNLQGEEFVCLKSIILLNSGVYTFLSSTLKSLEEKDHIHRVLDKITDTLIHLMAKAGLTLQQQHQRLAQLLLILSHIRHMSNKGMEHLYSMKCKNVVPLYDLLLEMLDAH
Chain of CRBN/DDB1 (Q96SW2 whole entry): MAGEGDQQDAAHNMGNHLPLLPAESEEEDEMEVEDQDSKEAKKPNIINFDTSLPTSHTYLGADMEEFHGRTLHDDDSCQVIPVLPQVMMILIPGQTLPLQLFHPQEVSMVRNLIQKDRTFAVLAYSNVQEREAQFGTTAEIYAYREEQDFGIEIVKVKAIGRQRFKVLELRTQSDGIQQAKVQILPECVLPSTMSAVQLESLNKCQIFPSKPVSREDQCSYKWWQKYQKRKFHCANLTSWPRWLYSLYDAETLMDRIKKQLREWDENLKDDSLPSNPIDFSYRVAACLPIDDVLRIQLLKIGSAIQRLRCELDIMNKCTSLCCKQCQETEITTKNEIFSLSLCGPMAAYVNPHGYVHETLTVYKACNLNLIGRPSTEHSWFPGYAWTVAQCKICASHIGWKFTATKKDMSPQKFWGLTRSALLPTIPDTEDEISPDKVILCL
Chain of CRBN/DDB1 (Q16531 whole entry partner): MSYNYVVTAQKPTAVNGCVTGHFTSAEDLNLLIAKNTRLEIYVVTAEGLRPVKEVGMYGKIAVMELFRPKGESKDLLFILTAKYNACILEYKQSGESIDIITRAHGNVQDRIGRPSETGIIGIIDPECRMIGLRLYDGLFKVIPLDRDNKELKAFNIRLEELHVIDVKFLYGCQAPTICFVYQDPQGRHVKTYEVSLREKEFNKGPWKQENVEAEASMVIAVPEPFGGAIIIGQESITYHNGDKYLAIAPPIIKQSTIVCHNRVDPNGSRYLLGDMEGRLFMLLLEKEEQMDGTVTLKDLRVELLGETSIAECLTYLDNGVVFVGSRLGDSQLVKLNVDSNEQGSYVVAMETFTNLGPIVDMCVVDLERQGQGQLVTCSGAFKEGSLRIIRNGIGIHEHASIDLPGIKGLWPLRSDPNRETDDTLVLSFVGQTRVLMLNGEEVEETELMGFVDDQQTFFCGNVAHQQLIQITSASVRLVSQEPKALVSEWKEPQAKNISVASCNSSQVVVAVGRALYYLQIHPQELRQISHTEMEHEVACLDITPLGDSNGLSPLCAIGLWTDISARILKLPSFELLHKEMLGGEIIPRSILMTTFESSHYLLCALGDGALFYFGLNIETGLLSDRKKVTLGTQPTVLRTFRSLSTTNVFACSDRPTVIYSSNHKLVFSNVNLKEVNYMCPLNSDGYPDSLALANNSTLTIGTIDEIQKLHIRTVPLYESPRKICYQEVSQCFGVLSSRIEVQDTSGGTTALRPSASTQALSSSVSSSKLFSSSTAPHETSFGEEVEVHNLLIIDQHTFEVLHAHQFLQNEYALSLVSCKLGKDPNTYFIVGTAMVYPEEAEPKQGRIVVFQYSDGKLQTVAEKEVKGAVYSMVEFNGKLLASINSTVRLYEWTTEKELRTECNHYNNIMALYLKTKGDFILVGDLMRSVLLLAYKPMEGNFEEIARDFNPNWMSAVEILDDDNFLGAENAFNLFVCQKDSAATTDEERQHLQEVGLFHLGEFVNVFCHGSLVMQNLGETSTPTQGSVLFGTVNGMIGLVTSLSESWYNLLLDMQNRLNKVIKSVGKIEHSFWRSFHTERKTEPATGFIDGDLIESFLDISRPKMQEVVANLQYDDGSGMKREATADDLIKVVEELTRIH

SMILES | IC50 (ERα_LBD(GST)) [nM] | Dmax (ER [1]) [%] | DC50 (ER [1]) [nM] | DC50 (ER [2]) [nM] | Dmax (ER [2]) [%] | MCF7 Dmax % (ER [1]) | T47D Dmax % (ER [2]) | IC50 (CRBN/DDB1) [nM]
O=C1CCC(N2Cc3c(ccc4c3OC[C@H]3CN(CC5CCN(c6ccc([C@@H]7c8ccc(O)cc8OC[C@@H]7c7ccccc7)cc6F)CC5)CCN43)C2=O)C(=O)N1 (single isomer, unassigned) [Compound A9, 3-((R)-7-((1-(2-fluoro-4-((3S,4R)-7-hydroxy-3-phenylchroman-4-yl)phenyl)piperidin-4-yl)methyl)-1-oxo-1,3,5,5a,6,7,8,9-octahydro-2H-pyrazino[1′,2′:4,5][1,4]oxazino[2,3-e]isoindol-2-yl)piperidine-2,6-dione] | < 5 | 50 to 75 |  |  |  |  |  | 
O=C1CCC(N2Cc3cc4c(cc3C2=O)OCC42CCN(CC3CCC4(CC3)CN(c3ccc([C@H]5c6ccc(O)cc6OC[C@H]5c5ccccc5)cc3)C4)CC2)C(=O)N1 (stereo partly drawn) [Compound A99, 3-(1′-((2-(4-((3R,4S)-7-hydroxy-3-phenylchroman-4-yl)phenyl)-2-azaspiro[3.5]nonan-7-yl)methyl)-7-oxo-5,7-dihydro-2H,6H-spiro[furo[2,3-f]isoindole-3,4′-piperidin]-6-yl)piperidine-2,6-dione] | < 5 | 50 to 75 | < 1 | < 1 | 50 to 75 |  |  | 
O=C1CCC(N2Cc3cc4c(cc3C2=O)OC[C@@H]2CN(CC3CC5(CCN(c6ccc([C@H]7c8ccc(O)cc8OC[C@H]7c7ccccc7)cc6)CC5)C3)CCN42)C(=O)N1 (single isomer, unassigned) [Compound A27] | < 5 | 50 to 75 |  |  |  |  |  | 
O=C1CCC(N2Cc3cc(N4CCN(CC5CC6(CCN(c7ccc([C@@H]8c9ccc(O)cc9OC[C@@H]8c8ccccc8)cn7)CC6)C5)CC4)ccc3C2=O)C(=O)N1 (single isomer, unassigned) [Compound A68] | < 5 |  | 1 to 10 | 1 to 10 |  | B (“B”: >50% and <75%) | A (“A”; >=75%) | 
O=C1CCC(N2Cc3c(ccc4c3OC[C@H]3CN(CC5CCN(c6ccc([C@@H]7c8ccc(O)cc8OC[C@@H]7c7ccccc7)cc6)CC5)CCN43)C2=O)C(=O)N1 (single isomer, unassigned) [Compound A8, 3-((R)-7-((1-(4-((3S,4R)-7-hydroxy-3-phenylchroman-4-yl)phenyl)piperidin-4-yl)methyl)-1-oxo-1,3,5,5a,6,7,8,9-octahydro-2H-pyrazino[1′,2′:4,5][1,4]oxazino[2,3-e]isoindol-2-yl)piperidine-2,6-dione] | < 5 | 50 to 75 |  |  |  |  |  | 
O=C1CCC(N2Cc3c(ccc4c3OC[C@@H]3CN(CC5CC6(CCN(c7ccc([C@H]8c9ccc(O)cc9OC[C@H]8c8ccccc8)cc7)CC6)C5)CCN43)C2=O)C(=O)N1 (single isomer, unassigned) [Compound A21] | < 5 |  |  |  |  |  |  | 
O=C1CCC(N2Cc3c(ccc4c3OC[C@H]3CN(CC5CC6(CCN(c7ccc([C@@H]8c9ccc(O)cc9OC[C@@H]8c8ccccc8)cn7)CC6)C5)CCN43)C2=O)C(=O)N1 (single isomer, unassigned) [Compound A65] |  |  | 1 to 10 | 1 to 10 |  | D (“D”; <25%) | C (“C”: 25%-50%) | 50 to 500
O=C1CCC(Nc2ccc(C34CCN(CC5COC6(CCN(c7ccc([C@H]8c9ccc(O)cc9OC[C@H]8c8ccccc8)cc7F)CC6)C5)CC3C4(F)F)cc2)C(=O)N1 (stereo partly drawn) [Compound A156, 3-((4-(7,7-difluoro-3-(((R)-8-(2-fluoro-4-((3R,4S)-7-hydroxy-3-phenylchroman-4-yl)phenyl)-1-oxa-8-azaspiro[4.5]decan-3-yl)methyl)-3-azabicyclo[4.1.0]heptan-6-yl)phenyl)amino)piperidine-2,6-dione] |  | < 25 | > 100 | < 1 | 25 to 50 |  |  | 500 to 5000
O=C1CCC(Nc2ccc(C3CCN(CC4CC5(CCN(c6ccc([C@@H]7c8ccc(O)cc8OC[C@@H]7c7ccccc7)cc6)CC5)C4)CC3)c(F)c2)C(=O)N1 (single isomer, unassigned) [Compound A75] |  | 25 to 50 | < 1 | 1 to 10 | 50 to 75 |  |  | 50 to 500
O=C1CC[C@@H](N2Cc3c(ccc4c3OC[C@@H]3CN(CC5COC6(CCN(c7ccc([C@@H]8c9ccc(O)cc9OC[C@@H]8c8ccccc8)cc7F)CC6)C5)CCN43)C2=O)C(=O)N1 (single isomer, unassigned) [Compound A158] |  |  | < 1 | < 1 |  |  |  | < 50
O=C1CCC(Nc2ccc(C3CCN(CC4CCN(c5ccc([C@@H]6c7ccc(O)cc7OC[C@@H]6c6ccccc6)cc5)CC4)CC3)c(F)c2)C(=O)N1 (single isomer, unassigned) [Compound A72] |  | < 25 | > 100 | < 1 | 25 to 50 |  |  | 50 to 500
O=C1CC[C@H](N2Cc3c(ccc4c3OC[C@H]3CN(CC5CC6(CCN(c7ccc([C@@H]8c9ccc(O)cc9OC[C@@H]8c8ccccc8)cc7)CC6)C5)CCN43)C2=O)C(=O)N1 (single isomer, unassigned) [Compound A90] |  |  | 1 to 10 | < 1 | 50 to 75 | B (“B”: >50% and <75%) |  | > 5000
O=C1CCC(N2Cc3cc4c(cc3C2=O)OC[C@@H]2CN(CC3CCN(c5ccc([C@@H]6c7ccc(O)cc7OC[C@@H]6c6ccccc6)cn5)CC3)CCN42)C(=O)N1 (single isomer, unassigned) [Compound A70] |  |  | > 100 | 1 to 10 |  |  |  | 50 to 500
O=C1CCC(Nc2ccc(N3CCN(CC4CC5(CCN(c6ccc([C@@H]7c8ccc(O)cc8OC[C@@H]7c7ccccc7)cc6)CC5)C4)CC3)c(F)c2)C(=O)N1 (stereo partly drawn) [Compound A52, 3-((3-fluoro-4-(4-((7-(4-((3S,4R)-7-hydroxy-3-phenylchroman-4-yl)phenyl)-7-azaspiro[3.5]nonan-2-yl)methyl)piperazin-1-yl)phenyl)amino)piperidine-2,6-dione] |  | < 25 | > 100 | < 1 | 25 to 50 |  |  | 50 to 500
CC(C(=O)N1Cc2cc3c(cc2C1)C(=O)N(C1CCC(=O)NC1=O)C3=O)N1CCC2(CCN(c3ccc([C@H]4c5ccc(O)cc5OC[C@H]4c4ccccc4)cc3)CC2)CC1 (single isomer, unassigned) [Compound A57] |  | < 25 | > 100 | > 100 | < 25 |  |  | > 5000
O=C1CC[C@@H](N2Cc3c(ccc4c3OC[C@@H]3CN(C[C@@H]5COC6(CCN(c7ccc([C@H]8c9ccc(O)cc9OC[C@H]8c8ccccc8)cc7F)CC6)C5)CCN43)C2=O)C(=O)N1 [Compound A155, (R)-3-((S)-7-(((R)-8-(2-fluoro-4-((3R,4S)-7-hydroxy-3-phenylchroman-4-yl)phenyl)-1-oxa-8-azaspiro[4.5]decan-3-yl)methyl)-1-oxo-1,3,5,5a,6,7,8,9-octahydro-2H-pyrazino[1′,2′:4,5][1,4]oxazino[2,3-e]isoindol-2-yl)piperidine-2,6-dione] |  | < 25 | > 100 | 1 to 10 | 25 to 50 |  |  | < 50
COc1cc(N2CCC(CN3CCN(c4ccc(C(=O)NC5CCC(=O)NC5=O)nc4)CC3)CC2)ccc1[C@H]1c2ccc(O)cc2OC[C@H]1c1ccccc1 (single isomer, unassigned) [Compound A124] |  | 50 to 75 | < 1 | < 1 | 50 to 75 |  |  | > 5000
O=C1CCN(c2ccc(N3CCC4(CC3)CC(CN3CCN(c5ccc([C@H]6c7ccc(O)cc7OC[C@H]6c6ccccc6)cc5)CC3)C4)cc2)C(=O)N1 (single isomer, unassigned) [Compound A107] |  | 25 to 50 | 1 to 10 | < 1 | 25 to 50 |  |  | > 5000
O=C1CCC(N2C(=O)c3cc4c(cc3C2=O)CN(C(=O)C2CCN(C3CCN(c5ccc([C@@H]6c7ccc(O)cc7OC[C@@H]6c6ccccc6)cc5)CC3)CC2)C4)C(=O)N1 (single isomer, unassigned) [Compound A79] |  | ≥ 75 | < 1 | < 1 | ≥ 75 |  |  | 500 to 5000

Source: patent US20260000676A1, “CHROMAN DERIVATIVES AS ESTROGEN RECEPTOR DEGRADERS” (THE REGENTS OF THE UNIVERSITY OF MICHIGAN, priority 2022, published 2026)
